How the values were obtained:
Format in all cases: in vivo
[1] = system: Amaranthus retroflexus; assay: greenhouse pre-emergence herbicidal test; settings: scale 0 to 100
Text: The seeds of the test plants were sown separately for each species. For the pre-emergence treatment, the active ingredients, which had been suspended or emulsified in water, were applied directly after sowing by means of finely distributing nozzles. The containers were irrigated gently to promote germination and growth and subsequently covered with transparent plastic hoods until the plants had rooted. This cover caused uniform germination of the test plants, unless this had been impaired by the active ingredients. […] The test period extended over 2 to 4 weeks. During this time, the plants were tended, and their response to the individual treatments was evaluated. Evaluation was carried out using a scale from 0 to 100. 100 means no emergence of the plants, or complete destruction of at least the aerial moieties, and 0 means no damage, or normal course of growth. A moderate herbicidal activity is given at values of at least 60, a good herbicidal activity is given at values of at least 70, and a very good herbicidal activity is given at values of at least 85. The plants used in the greenhouse experiments were of the following species: […]

[2] = system: Alopercurus myosuroides; assay: greenhouse pre-emergence herbicidal test; settings: scale 0 to 100
Text: (§1) The culture containers used were plastic flowerpots containing loamy sand with approximately 3.0% of humus as the substrate. The seeds of the test plants were sown separately for each species.
(§2) For the pre-emergence treatment, the active ingredients, which had been suspended or emulsified in water, were applied directly after sowing by means of finely distributing nozzles.
(§3) The containers were irrigated gently to promote germination and growth and subsequently covered with transparent plastic hoods until the plants had rooted. This cover caused uniform germination of the test plants, unless this had been impaired by the active ingredients.
(§4) Depending on the species, the plants were kept at 10-25° C. or 20-35° C., respectively.
(§5) The test period extended over 2 to 4 weeks. During this time, the plants were tended, and their response to the individual treatments was evaluated.
(§6) Evaluation was carried out using a scale from 0 to 100. 100 means no emergence of the plants, or complete destruction of at least the aerial moieties, and 0 means no damage, or normal course of growth. A moderate herbicidal activity is given at values of at least 60, a good herbicidal activity is given at values of at least 70, and a very good herbicidal activity is given at values of at least 85.
(§7) The plants used in the greenhouse experiments were of the following species: […]

[3] = system: Setaria faberi; assay: greenhouse pre-emergence herbicidal test; settings: scale 0 to 100
Text: as §1, §2, §3, §4, §5, §6, §7

[4] = system: Echinocloa crus-galli; assay: greenhouse pre-emergence herbicidal test; settings: 250 g/ha, scale 0 to 100
Text: as §1, §2, §3, §4, §5, §6, §7

[5] = system: Apera spica-venti; assay: greenhouse pre-emergence herbicidal test; settings: scale 0 to 100
Text: as §1, §2, §3, §4, §5, §6, §7

[6] = system: Abutilon theophrasti; assay: greenhouse post-emergence herbicidal test; settings: 250 g/ha, scale 0 to 100
Text: as §1
(§8) For the post-emergence treatment, the test plants were first grown to a height of 3 to 15 cm, depending on the plant habit, and only then treated with the active ingredients which had been suspended or emulsified in water. For this purpose, the test plants were either sown directly and grown in the same containers, or they were first grown separately as seedlings and transplanted into the test containers a few days prior to treatment.
as §4, §5, §6, §7

[7] = system: Amaranthus retroflexus; assay: greenhouse post-emergence herbicidal test; settings: 250 g/ha, scale 0 to 100
Text: as §1, §8, §4, §5, §6, §7

[8] = system: Abutilon theophrasti; assay: greenhouse pre-emergence herbicidal test; settings: 250 g/ha, scale 0 to 100
Text: as §1, §2, §3, §4, §5, §6, §7

[9] = system: Setaria viridis; assay: greenhouse post-emergence herbicidal test; settings: 250 g/ha, scale 0 to 100
Text: as §1, §8, §4, §5, §6, §7

[10] = system: Lolium multiflorum; assay: greenhouse pre-emergence herbicidal test; settings: 250 g/ha, scale 0 to 100
Text: as §1, §2, §3, §4, §5, §6, §7

[11] = system: Echinocloa crus-galli; assay: greenhouse post-emergence herbicidal test; settings: 250 g/ha, scale 0 to 100
Text: as §1, §8, §4, §5, §6, §7

| Structure (SMILES) | herbicidal activity ([1]; 250 g/ha) | herbicidal activity ([2]; 250 g/ha) | herbicidal activity ([3]; 250 g/ha) | herbicidal activity [4] | other results |
| --- | --- | --- | --- | --- | --- |
| Nc1nc(Nc2c(F)ncc(F)c2Br)nc(C2(F)CCCCC2)n1 [Example 51] | 100% | 100% | 100% |  |  |
| CC(C)(F)c1nc(N)nc(Nc2c(F)ncc(F)c2Br)n1 [Example 35] | 100% | 100% |  | 100% |  |
| CCC(F)(CC)c1nc(N)nc(Nc2c(F)ncc(F)c2Br)n1 [Example 52] | 100% |  | 100% | 100% |  |
| Nc1nc(Nc2c(F)ncc(F)c2Cl)nc(C2(Cl)CCCC2)n1 [Example 21] | 100% |  | 95% |  |  |
| CC(C)(Cl)c1nc(N)nc(Nc2c(F)ncc(F)c2Cl)n1 [Example 36] | 100% | 100% | 100% |  |  |
| CCCC(F)(F)c1nc(N)nc(Nc2c(F)ncc(F)c2Cl)n1 [Example 37] | 100% | 100% | 100% |  |  |
| CC(C)(C)c1nc(N)nc(Nc2c(F)ncc(F)c2Cl)n1 [Example 7, 6-tert-butyl-N4-(4-chloro-2,5-difluoro-3-pyridyl)-1,3,5-triazine-2,4-diamine] | 90% | 98% | 95% |  |  |
| CCCC(F)c1nc(N)nc(Nc2c(F)ncc(F)c2Cl)n1 (racemic) [Example 13] | 100% |  | 100% | 100% |  |
| CC(C)(C#N)c1nc(N)nc(Nc2c(F)ncc(F)c2Cl)n1 [Example 28] | 100% |  |  |  |  |
| Cc1nc(F)c(Nc2nc(N)nc(C(C)(C)F)n2)c(Cl)c1F [Example 32, N4-(4-Chloro-2,5-difluoro-6-methyl-3-pyridyl)-6-(1-fluoro-1-methyl-ethyl)-1,3,5-triazine-2,4-diamine] | 100% | 90% |  | 85% |  |
| N#Cc1ccnc(Cl)c1Nc1nc(N)nc(C2(F)CCCC2)n1 [Example 60] | 98% |  |  | 85% | herbicidal activity ([5]; 250 g/ha): 95%; herbicidal activity [6]: 95%; herbicidal activity [7]: 80% |
| CC(C)(F)c1nc(N)nc(Nc2c(F)ncc(F)c2Cl)n1 [Example 4] | 100% | 100% |  | 100% |  |
| CC1(c2nc(N)nc(Nc3c(F)ncc(F)c3Cl)n2)CCCC1 [Example 14] | 85% |  |  |  |  |
| CC(C)(CO)c1nc(N)nc(Nc2c(F)ncc(F)c2Cl)n1 [Example 40] | 100% | 90% | 95% |  |  |
| Nc1nc(Nc2c(F)ncc(F)c2Cl)nc(C2CCCC2)n1 [Example 6] | 90% | 80% |  |  |  |
| CC1(c2nc(N)nc(Nc3c(F)ncc(F)c3Cl)n2)CCC1 [Example 9] | 100% | 100% |  | 100% |  |
| Cc1ccnc(Cl)c1Nc1nc(N)nc(C(C)(C)F)n1 [Example 53] | 100% |  | 95% |  | herbicidal activity [8]: 100%; herbicidal activity [6]: 80%; herbicidal activity [7]: 98% |
| CC1CCC(c2nc(N)nc(Nc3c(F)ncc(F)c3Cl)n2)CC1 (centres unmarked) [Example 23] | 95% |  |  |  |  |
| Nc1nc(Nc2c(F)ncc(F)c2Cl)nc(C2(F)CCCC2)n1 [Example 12] | 100% |  | 100% | 98% |  |

| Structure (SMILES) | herbicidal activity ([1]; 250 g/ha) | herbicidal activity ([2]; 250 g/ha) | herbicidal activity ([3]; 250 g/ha) | herbicidal activity [4] | other results |
| --- | --- | --- | --- | --- | --- |
| CC(C)(F)c1nc(N)nc(Nc2c(F)ncc(F)c2I)n1 [Example 41] | 100% | 98% | 100% |  |  |
| Nc1nc(Nc2c(F)nc(F)c(F)c2Cl)nc(C2(F)CCCC2)n1 [Example 69] |  |  |  |  | herbicidal activity ([1]; 125 g/ha): 100%; herbicidal activity ([2]; 125 g/ha): 100%; herbicidal activity ([3]; 125 g/ha): 100% |
| Nc1nc(Nc2c(F)ncc(F)c2Cl)nc(C2(F)CC2)n1 [Example 31] | 100% | 100% |  | 100% |  |
| Nc1nc(Nc2c(F)ncc(F)c2Cl)nc(C2(F)CCCCC2)n1 [Example 11] | 100% | 100% | 100% |  |  |
| Nc1nc(Nc2c(F)ncc(F)c2Cl)nc(C2(F)CC=CC2)n1 [Example 19] | 100% |  | 100% | 100% |  |
| CC(C)CC(F)(F)c1nc(N)nc(Nc2c(F)ncc(F)c2Cl)n1 [Example 38] | 100% |  | 90% |  |  |
| CC(C)(C)c1nc(N)nc(Nc2c(F)ncc(F)c2Cl)n1 [Example 2, 6-tert-butyl-N4-(4-chloro-2,5-difluoro-3-pyridyl)-1,3,5-triazine-2,4-diamine] |  |  |  |  | herbicidal activity ([1]; 125 g/ha): 100%; herbicidal activity ([5]; 125 g/ha): 90% |
| Nc1nc(Nc2c(F)ncc(F)c2Br)nc(C(F)C2CCCC2)n1 (centres unmarked) [Example 61] | 100% | 90% | 100% |  |  |
| Cc1ccnc(F)c1Nc1nc(N)nc(C2(F)CCCC2)n1 [Example 54] | 100% |  | 100% |  | herbicidal activity ([5]; 250 g/ha): 98%; herbicidal activity [9]: 80% |
| CCCc1nc(F)c(Nc2nc(N)nc(C(C)(C)F)n2)c(Cl)c1F [Example 44] | 100% |  |  |  |  |
| Nc1nc(Nc2c(Cl)ccnc2Cl)nc(C2(F)CCCC2)n1 [Example 47] | 100% |  | 100% |  | herbicidal activity [10]: 100% |
| C#CC(C)(F)c1nc(N)nc(Nc2c(F)ncc(F)c2Cl)n1 (centres unmarked) [Example 48] | 100% |  | 100% | 98% |  |
| CC1(c2nc(N)nc(Nc3c(F)ncc(F)c3Cl)n2)CC1 [Example 33] | 98% |  |  |  |  |
| CCCC(F)c1nc(N)nc(Nc2c(F)ncc(F)c2Br)n1 (centres unmarked) [Example 46] | 100% | 98% | 100% |  |  |
| CC(F)c1nc(N)nc(Nc2c(F)ncc(F)c2Cl)n1 (racemic) [Example 8] | 100% |  | 100% | 90% |  |
| CC(C)(F)c1nc(N)nc(Nc2c(F)nc(F)c(F)c2OCC(F)(F)F)n1 [Example 65] | 100% |  |  |  | herbicidal activity ([5]; 250 g/ha): 100%; herbicidal activity [6]: 100%; herbicidal activity [7]: 100%; herbicidal activity [11]: 95% |
| Nc1nc(Nc2c(F)ncc(F)c2Cl)nc(C(F)C2CCCC2)n1 (racemic) [Example 20] | 100% | 100% | 100% |  |  |
| COC1(c2nc(N)nc(Nc3c(F)ncc(F)c3Cl)n2)CCCC1 [Example 10] | 100% | 100% |  |  | herbicidal activity [10]: 95% |
| Nc1nc(Nc2c(F)ncc(F)c2Br)nc(C2(F)CCCC2)n1 [Example 43] | 100% | 100% | 100% |  |  |
